Molecules are shown by their SMILES.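 Cells were grown in 96-well plates and exposed to each compound for 48 hours at five concentrations; endpoints were interpolated linearly between bracketing concentrations, or set to the highest concentration if not reached. Definition used: TGI = concentration required for complete inhibition of growth.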

The record followed here is PubChem BioAssay (NCI).

Some test systems named below: CAKI-1 renal; HT29 colon; MALME-3M melanoma; MDA-MB-231 breast; MOLT-4 leukemia; OVCAR-3 ovarian; SK-MEL-28 melanoma; SK-OV-3 ovarian; T-47D breast; RXF 393 renal; CCRF-CEM leukemia.
Common to all, as to test: growth of human tumour cells (NCI), 48 h

As for `Cc1noc(NC2=CC(=O)C(=O)c3ccccc32)c1C`, the TGI in the assay on CAKI-1 renal is > 100 µM; in the assay with HT29 colon, 88 µM; with MALME-3M melanoma it was 17.6 µM; in the assay with MDA-MB-231 breast, > 100 µM; in the assay with MOLT-4 leukemia, 47.4 µM; in the assay on OVCAR-3 ovarian, > 100 µM. The TGI in the assay on SK-MEL-28 melanoma, in the assay on SK-OV-3 ovarian and in the assay on T-47D breast was > 100 µM each time.

Regarding `CC1=Nc2sc3c(c2C2=NCCN12)CCCC3`, the TGI in the assay with CAKI-1 renal was found to be 50.6 µM; with HT29 colon, 36.5 µM; in the assay with MALME-3M melanoma, 71.3 µM; in the assay with MDA-MB-231 breast, 71.2 µM; with MOLT-4 leukemia it was 60.5 µM; in the assay on OVCAR-3 ovarian, 66.8 µM. Besides, the TGI in the assay on RXF 393 renal came to 61 µM; with SK-MEL-28 melanoma, 65.4 µM; with T-47D breast, 88 µM.

With `CC1=C(C(=O)c2ccccc2)C23C(=O)N(c4ccccc4)C(=O)C2=C(O)C=CC3(O)N1` (stereo not given), the TGI is > 100 µM in the assay on CAKI-1 renal; > 100 µM in the assay on CCRF-CEM leukemia; 32.3 µM with HT29 colon; 65.1 µM in the assay with MALME-3M melanoma; > 100 µM in the assay with MDA-MB-231 breast; 58.9 µM in the assay with OVCAR-3 ovarian. In addition, the TGI is 43 µM in the assay with RXF 393 renal, 39.2 µM in the assay with SK-MEL-28 melanoma and > 100 µM in the assay on T-47D breast.

Regarding `COc1ccc(C2C3COc4ccccc4C3=NN2c2ccccc2)cc1` (stereo not given), the TGI with CAKI-1 renal, in the assay on CCRF-CEM leukemia, with HT29 colon, with MALME-3M melanoma, with MDA-MB-231 breast and with MOLT-4 leukemia was > 100 µM throughout. For the same molecule, the TGI with OVCAR-3 ovarian, with RXF 393 renal, in the assay on SK-OV-3 ovarian and in the assay on T-47D breast was > 100 µM in each case.

With `C=CCO[C@]1(CC=C)C(=O)C(=O)OC1C1COC(C)(C)O1` (stereo not given in full), the TGI is 41.9 µM in the assay with CAKI-1 renal; 89.5 µM in the assay on CCRF-CEM leukemia; 37.2 µM with HT29 colon; 32.3 µM with MALME-3M melanoma; > 100 µM in the assay with MDA-MB-231 breast; 93.8 µM with MOLT-4 leukemia. The TGI in the assay on OVCAR-3 ovarian is > 100 µM; with RXF 393 renal, 40.8 µM; with T-47D breast, > 100 µM.

With `O=C(O)/C(Cc1ccc([N+](=O)[O-])cc1)=N\O`, the TGI in the assay on CAKI-1 renal, with CCRF-CEM leukemia, with HT29 colon, in the assay on MALME-3M melanoma, with MDA-MB-231 breast and with OVCAR-3 ovarian was > 100 µM each time. Moreover, the TGI with RXF 393 renal, in the assay on SK-MEL-28 melanoma, in the assay on SK-OV-3 ovarian and with T-47D breast was > 100 µM throughout.

Take `Cc1ccc(/C(O)=C/c2nc3ccccc3s/c2=N/CS(=O)(=O)c2ccc(C)cc2)cc1`: the TGI with CAKI-1 renal, with CCRF-CEM leukemia, with HT29 colon, with MALME-3M melanoma, in the assay on MDA-MB-231 breast and in the assay with MOLT-4 leukemia was > 10 µM each time. In addition, the TGI in the assay with OVCAR-3 ovarian, with SK-MEL-28 melanoma, with SK-OV-3 ovarian and in the assay with T-47D breast was > 10 µM throughout.

`O=[N+]([O-])c1ccc(C=NCC2CCCN3CCCCC23)cc1` (stereo not given): the TGI is > 100 µM with CAKI-1 renal; > 100 µM in the assay with CCRF-CEM leukemia; 34.9 µM in the assay with HT29 colon; > 100 µM in the assay on MALME-3M melanoma; > 100 µM with MDA-MB-231 breast; > 100 µM in the assay with MOLT-4 leukemia. Also, the TGI in the assay with RXF 393 renal, in the assay with SK-MEL-28 melanoma, in the assay on SK-OV-3 ovarian and with T-47D breast was > 100 µM in each case.

As to `CC1C2(C)OC(=N)C(C#N)(C(c3cccc([N+](=O)[O-])c3)O2)C1(C#N)C#N` (stereo not given), the TGI was 24.4 µM in the assay with CAKI-1 renal; 52.2 µM in the assay on CCRF-CEM leukemia; 74.6 µM in the assay on HT29 colon; 73 µM in the assay with MALME-3M melanoma; 32 µM with MDA-MB-231 breast; > 100 µM in the assay on MOLT-4 leukemia. In addition, the TGI with RXF 393 renal was 43.9 µM; in the assay with SK-MEL-28 melanoma, 47.5 µM; in the assay on SK-OV-3 ovarian, > 100 µM; in the assay on T-47D breast, 35.9 µM.

Consider `O=C1OC(=O)c2cc(S(=O)(=O)c3ccc4c(c3)C(=O)OC4=O)ccc21`, for which the TGI in the assay with CAKI-1 renal, with CCRF-CEM leukemia, in the assay with HT29 colon, in the assay on MALME-3M melanoma, with MDA-MB-231 breast and in the assay on OVCAR-3 ovarian was > 100 µM in each case. Further, the TGI in the assay on RXF 393 renal, with SK-MEL-28 melanoma, with SK-OV-3 ovarian and with T-47D breast was > 100 µM throughout.

Regarding `O=C(Cc1ccccc1)Nn1c(-c2ccccc2)nc2ccccc2c1=O`, the TGI with CCRF-CEM leukemia, in the assay on HT29 colon, in the assay with MALME-3M melanoma, in the assay with MDA-MB-231 breast, in the assay with MOLT-4 leukemia and in the assay with OVCAR-3 ovarian was > 100 µM each time. The TGI with RXF 393 renal, with SK-MEL-28 melanoma, with SK-OV-3 ovarian and in the assay on T-47D breast was > 100 µM throughout.

In the case of `CN(C)C(=O)OC(Cn1cncn1)(Cn1cncn1)c1ccc(Cl)cc1Cl`, the TGI in the assay with CAKI-1 renal, in the assay with CCRF-CEM leukemia, in the assay on HT29 colon, in the assay on MDA-MB-231 breast, in the assay with MOLT-4 leukemia and with OVCAR-3 ovarian was > 100 µM throughout. The TGI in the assay on RXF 393 renal, in the assay on SK-MEL-28 melanoma, with SK-OV-3 ovarian and in the assay on T-47D breast was > 100 µM throughout.

For `CC1(C)C2CC(=O)C1(C)C(OCc1ccccc1)C2` (stereo not given), the TGI was > 100 µM in the assay with CAKI-1 renal; 92.8 µM in the assay with CCRF-CEM leukemia; > 100 µM in the assay with HT29 colon; > 100 µM with MALME-3M melanoma; > 100 µM in the assay on MDA-MB-231 breast; 46.6 µM in the assay with MOLT-4 leukemia. The TGI in the assay on OVCAR-3 ovarian, with SK-MEL-28 melanoma, with SK-OV-3 ovarian and in the assay with T-47D breast was > 100 µM each time.

For `COC(=O)c1cnc(Cl)cn1`, the TGI with CAKI-1 renal was 37.5 µM; with CCRF-CEM leukemia it was > 100 µM; with HT29 colon, > 100 µM; in the assay with MALME-3M melanoma, > 100 µM; in the assay with MDA-MB-231 breast, > 100 µM; with MOLT-4 leukemia, > 100 µM. Moreover, the TGI in the assay on SK-MEL-28 melanoma, with SK-OV-3 ovarian and with T-47D breast was > 100 µM in each case.
